The values below come from patent US20080200448A1, “New Pyridine Analogues VIII 518” (ASTRAZENECA AB, priority 2007, published 2008).

SMILES strings stand for the structures.

The target of the test is T1, P2Y12 receptor (Homo sapiens, UniProt Q9H244).
T1 construct: expressed in transfected cells; host or cells: CHO cells (membrane preparation)
T1 sequence (Q9H244 whole entry): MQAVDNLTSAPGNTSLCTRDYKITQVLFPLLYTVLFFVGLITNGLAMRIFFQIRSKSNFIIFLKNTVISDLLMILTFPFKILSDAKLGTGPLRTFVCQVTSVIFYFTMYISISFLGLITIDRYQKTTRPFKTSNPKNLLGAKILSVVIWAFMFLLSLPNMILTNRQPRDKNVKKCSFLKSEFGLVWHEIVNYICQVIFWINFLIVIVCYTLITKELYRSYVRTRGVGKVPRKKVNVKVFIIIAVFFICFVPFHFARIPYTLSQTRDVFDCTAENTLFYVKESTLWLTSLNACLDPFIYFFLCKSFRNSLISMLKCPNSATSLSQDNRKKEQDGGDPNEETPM
Briefly: Functional inhibition of 2-Me-S-ADP induced P2Y12 signalling (35S-GTPγS binding, cell membranes). It counts as biochemical. As to conditions: 35S-GTPγS assay, membranes, EC80 concentration of 2-methyl-thio-adenosine diphosphate, 30° C. for 45 min; read-out: GTPγS (IC50 μM). In a few lines:
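Membranes (5 μg) from P2Y12-transfected CHO cells in pH 7.4 HEPES buffer with 10 μM GDP and saponin were stimulated with an EC80 of 2-methyl-thio-ADP plus compound and ^35S-GTPγS for 45 min at 30° C. Filter-retained ^35S-GTPγS was counted, normalised between agonist and no-agonist activity, and IC50 taken from a four-parameter fit.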
As for `CCOC(=O)c1cc(C#N)c(N2CC(C(=O)NS(=O)(=O)Cc3ccccc3)C2)nc1CSCCNC(C)=O` [Example 32, Ethyl 2-{[(2-acetamidoethyl)thio]methyl}-6-{3-[(benzylsulfonyl)carbamoyl]azetidin-1-yl}-5-cyanonicotinate], the half-inhibitory concentration (IC50) worked out at 0.081 µM.
Turning to `CCOC(=O)c1cc(C#N)c(N2CCC(C(=O)NS(=O)(=O)Cc3ccccc3)CC2)nc1CSCCC(=O)OC` [Example 119, Ethyl 6-{4-[(benzylsulfonyl)carbamoyl]piperidin-1-yl}-5-cyano-2-{[(3-methoxy-3-oxopropyl)thio]methyl}nicotinate], the IC50 was determined as 0.042 µM.
With `CCSC(=O)c1cc(C#N)c(N2CCC(C(=O)NS(=O)(=O)Cc3ccc(C)cc3)CC2)nc1CN1CCCC1=O` [Example 98, S-Ethyl 5-cyano-6-(4-{[(4-methylbenzyl)sulfonyl]carbamoyl}piperidin-1-yl)-2-[(2-oxopyrrolidin-1-yl)methyl]pyridine-3-carbothioate], the 50% inhibitory concentration (IC50) was 4.53 µM.
`CC(C)OC(=O)c1cc(C#N)c(N2CCC(C(=O)NS(=O)(=O)N(C)c3ccccc3)CC2)nc1CN1CCCC1=O` [Example 78, Isopropyl 5-cyano-6-[4-({[methyl(phenyl)amino]sulfonyl}carbamoyl)piperidin-1-yl]-2-[(2-oxopyrrolidin-1-yl)methyl]nicotinate]: the IC50 was determined as 0.021 µM.
`CCOC(=O)c1cc(C#N)c(N2CCC(C(=O)NS(=O)(=O)Cc3ccc(SC(F)(F)F)cc3)CC2)nc1CN1CCCCC1=O` [Example 101, Ethyl 5-cyano-2-[(2-oxopiperidin-1-yl)methyl]-6-{4-[({4-[(trifluoromethyl)thio]benzyl}sulfonyl)carbamoyl]piperidin-1-yl}nicotinate]: the concentration for half-maximal inhibition (IC50) was determined as 0.166 µM.
Regarding `CCOC(=O)c1cc(C#N)c(N2CCC(C(=O)NS(=O)(=O)Cc3ccc(F)cc3)CC2)nc1CN1CCCC1=O` [Example 40, Ethyl 5-cyano-6-(4-{[(4-fluorobenzyl)sulfonyl]carbamoyl}piperidin-1-yl)-2-[(2-oxopyrrolidin-1-yl)methyl]nicotinate], the half-inhibitory concentration (IC50) came out at 0.025 µM.
Take `CCOC(=O)c1cc(C#N)c(N2CCC(C(=O)NS(=O)(=O)Cc3ccc(Cl)cc3)CC2)nc1CN1CCCC1=O` [Example 39, Ethyl 6-(4-{[(4-chlorobenzyl)sulfonyl]carbamoyl}piperidin-1-yl)-5-cyano-2-[(2-oxopyrrolidin-1-yl)methyl]nicotinate]: the concentration for half-maximal inhibition (IC50) worked out at 0.011 µM.
With `CCOC(=O)c1cc(C#N)c(N2CCC(C(=O)NS(=O)(=O)Cc3ccc(F)cc3F)CC2)nc1CN1CCCCC1=O` [Example 67, Ethyl 5-cyano-6-(4-{[(2,4-difluorobenzyl)sulfonyl]carbamoyl}piperidin-1-yl)-2-[(2-oxopiperidin-1-yl)methyl]nicotinate], the concentration for half-maximal inhibition (IC50) stood at 0.02 µM.
On to `CCOC(=O)c1cc(C#N)c(N2CCC(C(=O)NS(=O)(=O)Cc3ccccc3)CC2)nc1CN1CCCCC1=O` [Example 56, Ethyl 6-{4-[(benzylsulfonyl)carbamoyl]piperidin-1-yl}-5-cyano-2-[(2-oxopiperidin-1-yl)methyl]nicotinate], for which the 50% inhibitory concentration (IC50) amounted to 0.03 µM.
Under `CCOC(=O)c1cc(C#N)c(N2CCC(C(=O)NS(=O)(=O)Cc3ccccc3)CC2)nc1CSCC(=O)O` [Example 115, ({[6-{4-[(Benzylsulfonyl)carbamoyl]piperidin-1-yl}-5-cyano-3-(ethoxycarbonyl)pyridin-2-yl]methyl}thio)acetic acid] stands 0.035 µM; under `CC(C)OC(=O)c1cc(C#N)c(N2CCC(C(=O)NS(=O)(=O)CC3CCCCC3)CC2)nc1CN1CCCC1=O` [Example 82, Isopropyl 5-cyano-6-(4-{[(cyclohexylmethyl)sulfonyl]carbamoyl}piperidin-1-yl)-2-[(2-oxopyrrolidin-1-yl)methyl]nicotinate], 0.028 µM; under `CC(C)OC(=O)c1cc(C#N)c(N2CCC(C(=O)NS(=O)(=O)Cc3ccc(F)cc3Cl)CC2)nc1CN1CCCC1=O` [Example 49, Isopropyl 6-(4-{[(2-chloro-4-fluorobenzyl)sulfonyl]carbamoyl}piperidin-1-yl)-5-cyano-2-[(2-oxopyrrolidin-1-yl)methyl]nicotinate], 0.066 µM.
As to `CCOC(=O)c1cc(C#N)c(N2CCC(C(=O)NS(=O)(=O)Cc3ccccc3)CC2)nc1SCCNC(C)=O` [Example 21, Ethyl 2-[(2-acetamidoethyl)thio]-6-{4-[(benzylsulfonyl)carbamoyl]piperidin-1-yl}-5-cyanonicotinate], the IC50 was 0.01 µM.
As to `CCOC(=O)c1cc(C#N)c(N2CCC(C(=O)NS(=O)(=O)CC3CCCC3)CC2)nc1CN1CCCCC1=O` [Example 60, Ethyl 5-cyano-6-(4-{[(cyclopentylmethyl)sulfonyl]carbamoyl}piperidin-1-yl)-2-[(2-oxopiperidin-1-yl)methyl]nicotinate], the IC50 is 0.111 µM.
Turning to `CCOC(=O)c1cc(C#N)c(N2CCC(C(=O)N(C)S(=O)(=O)Cc3ccccc3)CC2)nc1CN1CCCCC1=O` [Example 128, Ethyl 6-{4-[(benzylsulfonyl)(methyl)carbamoyl]piperidin-1-yl}-5-cyano-2-[(2-oxopiperidin-1-yl)methyl]nicotinate], the 50% inhibitory concentration (IC50) amounted to 1.14 µM.
With `Cc1ccc(CS(=O)(=O)NC(=O)C2CCN(c3nc(CN4CCCC4=O)c(C(=O)OC(C)C)cc3C#N)CC2)cc1` [Example 45, Isopropyl 5-cyano-6-(4-{[(4-methylbenzyl)sulfonyl]carbamoyl}piperidin-1-yl)-2-[(2-oxopyrrolidin-1-yl)methyl]nicotinate], the IC50 amounted to 0.019 µM.
For the compound `CCOC(=O)c1cc(Cl)c(N2CCC(C(=O)NS(=O)(=O)Cc3ccc(OC)cc3)CC2)nc1CN1CCCC1=O` [Example 88, Ethyl 5-chloro-6-(4-{[(4-methoxybenzyl)sulfonyl]carbamoyl}piperidin-1-yl)-2-[(2-oxopyrrolidin-1-yl)methyl]nicotinate], the IC50 came out at 0.081 µM.
As for `CC(C)OC(=O)c1cc(C#N)c(N2CCC(C(=O)NS(=O)(=O)Cc3ccc([Si](C)(C)C)cc3)CC2)nc1CN1CCCC1=O` [Example 99, Isopropyl 5-cyano-2-[(2-oxopyrrolidin-1-yl)methyl]-6-[4-({[4-(trimethylsilyl)benzyl]sulfonyl}carbamoyl)piperidin-1-yl]nicotinate], the concentration for half-maximal inhibition (IC50) is 0.497 µM.
As to `CCOC(=O)c1cc(C#N)c(N2CC(C(=O)NS(=O)(=O)Cc3ccccc3)C2)nc1CSCCO` [Example 31, Ethyl 6-{3-[(benzylsulfonyl)carbamoyl]azetidin-1-yl}-5-cyano-2-{[(2-hydroxyethyl)thio]methyl}nicotinate], the half-maximal inhibitory concentration (IC50) was 0.066 µM.
`CCOC(=O)c1ccc(N2CCC(C(=O)NS(=O)(=O)Cc3ccccc3)CC2)nc1CN1CCCC1=O` [Example 86, Ethyl 6-{4-[(benzylsulfonyl)carbamoyl]piperidin-1-yl}-2-[(2-oxopyrrolidin-1-yl)methyl]nicotinate]: the IC50 came to 0.103 µM.
For the compound `CC(C)OC(=O)c1cc(C#N)c(N2CCC(C(=O)NS(=O)(=O)Cc3ccc(F)cc3F)CC2)nc1CN1CCCC1=O` [Example 46, Isopropyl 5-cyano-6-(4-{[(2,4-difluorobenzyl)sulfonyl]carbamoyl}piperidin-1-yl)-2-[(2-oxopyrrolidin-1-yl)methyl]nicotinate], the half-inhibitory concentration (IC50) amounted to 0.021 µM.
Regarding `CCOC(=O)c1cc(C#N)c(N2CCC(C(=O)NS(=O)(=O)Cc3ccccc3)CC2)nc1CCC(C)=O` [Example 112, Ethyl 6-{4-[(benzylsulfonyl)carbamoyl]piperidin-1-yl}-5-cyano-2-(3-oxobutyl)nicotinate], the IC50 was 0.022 µM.
In the case of `CCOC(=O)c1cc(Cl)c(N2CCC(C(=O)NS(=O)(=O)N(C)c3ccccc3)CC2)nc1CN1CCCC1=O` [Example 93, Ethyl 5-chloro-6-[4-({[methyl(phenyl)amino]sulfonyl}carbamoyl)piperidin-1-yl]-2-[(2-oxopyrrolidin-1-yl)methyl]nicotinate] it was 0.062 µM; in that of `CCSC(=O)c1cc(C#N)c(N2CCC(C(=O)NS(=O)(=O)CC3CCCC3)CC2)nc1CN1CCCC1=O` [Example 97, S-Ethyl 5-cyano-6-(4-{[(cyclopentylmethyl)sulfonyl]carbamoyl}piperidin-1-yl)-2-[(2-oxopyrrolidin-1-yl)methyl]pyridine-3-carbothioate], 1.22 µM; in that of `CCCOC(=O)c1cc(F)c(N2CCC(C(=O)NS(=O)(=O)Cc3ccccc3)CC2)nc1CN1CCCC1=O` [Example 130, Propyl 6-{4-[(benzylsulfonyl)carbamoyl]piperidin-1-yl}-5-fluoro-2-[(2-oxopyrrolidin-1-yl)methyl]nicotinate], 0.122 µM.
On to `CCOC(=O)c1cc(Br)c(N2CCC(C(=O)NS(=O)(=O)Cc3ccccc3)CC2)nc1CN1CCCC1=O` [Example 84, Ethyl 6-{4-[(benzylsulfonyl)carbamoyl]piperidin-1-yl}-5-bromo-2-[(2-oxopyrrolidin-1-yl)methyl]nicotinate], for which the IC50 is 0.031 µM.
Regarding `CCOC(=O)c1cc(C#N)c(N2CCC(C(=O)NS(=O)(=O)Cc3ccccc3)CC2)nc1OCC(=O)N(C)C` [Example 125, Ethyl 6-{4-[(benzylsulfonyl)carbamoyl]piperidin-1-yl}-5-cyano-2-[2-(dimethylamino)-2-oxoethoxy]nicotinate], the 50% inhibitory concentration (IC50) is 0.065 µM.
In the case of `CCOC(=O)c1cc(C#N)c(N2CCC(C(=O)NS(=O)(=O)N(C)c3ccccc3)CC2)nc1CN1CCCC1=O` [Example 57, Ethyl 5-cyano-6-[4-({[methyl(phenyl)amino]sulfonyl}carbamoyl)piperidin-1-yl]-2-[(2-oxopyrrolidin-1-yl)methyl]nicotinate], the IC50 came to 0.013 µM.
Regarding `CCOC(=O)c1cc(C#N)c(N2CCC(C(=O)NS(=O)(=O)CC3CCC(C)CC3)CC2)nc1CN1CCCCC1=O` (centres unmarked) [Example 58, Ethyl 5-cyano-6-[4-({[(4-methylcyclohexyl)methyl]sulfonyl}carbamoyl)piperidin-1-yl]-2-[(2-oxopiperidin-1-yl)methyl]nicotinate], the IC50 came out at 0.164 µM.

What is called IC50 is the concentration needed to halve the response being measured.
